Assay results published in ChEMBL document CHEMBL1151305, “The biotransformation of some clovanes by botrytis cinerea” (J Nat Prod, 1998).
The source made the active and inactive calls. The calls are words filed in the database; no cut-off is given here.

Test system: Botrytis cinerea
Experiment: Antifungal activity against Botrytis cinerea assessed as inhibition of radical growth by poisoned-food technique
Format: functional, organism-based

For `CO[C@H]1CC(C)(C)[C@@H]2CC[C@@]3(C)C[C@]12CC[C@H]3O`, the Activity was “Active”.
